Test results published in patent EP0116208A1, “Mitomycin analogues” (KYOWA HAKKO KOGYO CO., LTD., priority 1982, dated 1984).

How the values were obtained:
Acute toxicity (LD50) = assay: Acute toxicity (LD50); parameters: species or system mice; conditions: mouse, in vivo; death ratio observed for 14 days; Behrens-Korber's method
Text: (3) Acute toxicity (LD50):
On each occasion, the test compound was given to the test animal.

Sarcoma 180 solid tumour = assay: Effect on Sarcoma 180 solid tumour (ED50, chemotherapeutic index); format: in vivo, ddy mice; conditions: Anti-tumour activity; ratio of LD50 to ED50; ED50 = dose giving T/C 0.5 of Sarcoma 180 solid tumour volume, intraperitoneal injection
Text: (1) Effect on Sarcoma 180 solid tumour:
5 x 10^6 cells of Sarcoma 180 solid tumour were innoculated into the abdominal cavities of groups of ddy mice, each group consisting of 5 mice. 7..days after this, on each occasion, the tumour cells were collected from the ascites of the mouse. The cells were washed with a sterilized physiological sodium chloride solution and used to prepare a cell suspension containing 5 x 10^7 cells per ml of a sterilized physiological solution of sodium chloride, of which 0.1 ml was injected under the skin of the right armpit of a ddy male mouse (body weight 20 ±2 g). A test compound was dissolved in a physiological solution of sodium chloride or a similar solution containing Tween 80 (a surfactant commercially available from Atlas Chemical Industries, Inc., U.S.A.). 24 hours after the implantation of the tumours cells, the test compound (0.1 to 0.2 ml) was injected into the test mice intraperitoneally. In order to determine the antitumour activity of the test compound, 7 days after the implantation of the tumour cells, on each occasion, the major axis (a) and minor axis (b) of the tumour were measured to calculate the volume of the tumour ['a' x ^Ib'/2]. The anti-tumour effect was evaluated by the ratio of the tumour volume in the test animals (T) to the corresponding volume of the control (untreated) animals (C).
(2) Determination of ED50.
A dose capable of reducing the volume of a Sarcoma 180 solid tumour to 50% of the corresponding volume of the untreated group on average was defined as the ED50. T/C ratios and the doses were respectively plotted on the ordinate in arithmetic scale and abscissa in logarithmic scale on graph paper, from which the relationship between the doses and the T/C ratios was calculated as a straight line by the least square method. From the straight tropic line thus-obtained, the dose corresponding to a T/C of 0.5 was determined.

[1] = Effect upon the number of peripheral leukocytes (WBC 4000); format: in vivo; conditions: mouse, Toxicity against bone marrow, WBC 4000 = dose giving 4000 leukocytes/mm3, Sarcoma 180 bearing mice, read-out: WBC 4000/ ED50
Method: (5) Effect upon the number of peripheral leukocytes:
5 x 10^6 cells of Sarcoma 180 solid tumour were implanted under the skin of each mouse at the right armpit. 24 hours after this, venous blood (0.02 ml) was collected from the eyepit of the mouse and suspended in Cell-Kit Seven solution (10 ml; commercially available from Toa Iryo Denshi K.K., Japan).
To the suspension, a drop of saponin solution was added to dissolve the red cells and the number of leukocytes were counted using a microcell counter. The number of leukocytes and the corresponding dose were respectively plotted on the ordinate in arithmetic scale and on the abscissa in logarithmic scale on graph paper to investigate the relationship between dosage and the number of peripherical leukocytes. A dose capable of giving 4000 leukocytes/mm3 was defined as WBC 4000, which corresponded to about 1/2 the number of peripherical leukocytes in normal mice.
The greater the ratio of WBC 4000 to ED50 the smaller the decrease in the number of peripherical leukocytes viz. the lower the toxicity against bone marrow in the area of the effective dose.

SMILES | LD50 at 336 h (Acute toxicity (LD50)) [mg/kg] | C.I. (Sarcoma 180 solid tumour) | selectivity ratio [1]
CC1=C(NCCSSCCNC2=C(C)C(=O)C3=C(C2=O)C(COC(N)=O)C2(O)C4C(CN32)N4C)C(=O)C2=C(C1=O)N1CC3C(N3C)C1(O)C2COC(N)=O (stereo not drawn) [a, 7-N,7'-N'-dithiodiethylenedimitomycin D] | > 60 | >2.99 | 2.29
CC1=C(NCCSSCCN)C(=O)C2=C(C1=O)N1CC3C(N3C)C1(O)C2COC(N)=O (stereo not drawn) [c, 7-N-[2-(2-aminoethyl)dithioethyl]mitomycin D] | 74.3 | 3.11 | 1.87
CCSSCCNC1=C(C)C(=O)C2=C(C1=O)C(COC(N)=O)C1(OC)C3NC3CN21 (stereo not drawn) [g, 7-N-(2-ethyldithioethyl)mitomycin C] | 5.4 | 1.64 | 3.76
COC12C(COC(N)=O)C3=C(C(=O)C(C)=C(NCCSSCCO)C3=O)N1CC1NC12 (stereo not drawn) [i, 7-N-[2-(2-hydroxyethyl)dithioethyl]mitomycin C] | ≤ 11.2 | ≤2.12 | 2.13
COC12C(COC(N)=O)C3=C(C(=O)C(C)=C(NC4CSSC4)C3=O)N1CC1NC12 (stereo not drawn) [j, 7-N-(1,2-dithiolan-4-yl)mitomycin C] | 5.25 | – | –
CC1=C(NC2CSSC2)C(=O)C2=C(C1=O)N1CC3C(N3C)C1(O)C2COC(N)=O (stereo not drawn) [l, 7-N-(1,2-dithiolan-4-yl)mitomycin D] | 35.6 | – | –
COC12C(COC(N)=O)C3=C(C(=O)C(C)=C(NCCSSCC(O)CO)C3=O)N1CC1NC12 (stereo not drawn) [o, 7-N-[2-(2,3-dihydroxypropyl)dithioethyl]mitomycin C] | 22.5 | – | –
COC12C(COC(N)=O)C3=C(C(=O)C(C)=C(NCCSSCCN)C3=O)N1CC1NC12 (stereo not drawn) [r, 7-N-[2-(2-aminoethyl)dithioethyl)mitomycin C] | 13.5 | 0.73 | 1.25
COC12C(COC(N)=O)C3=C(C(=O)C(C)=C(NCCSSCCNC4=C(C)C(=O)C5=C(C4=O)C(COC(N)=O)C4(OC)C6NC6CN54)C3=O)N1CC1NC12 (stereo not drawn) [s, 7-N-, 7'-N'-dithiodiethylenedimitomycin C] | 18.8 | 2.98 | 2.63
COC12C(COC(N)=O)C3=C(C(=O)C(C)=C(NCCSSCCNC4=C(C)C(=O)C5=C(C4=O)C(COC(N)=O)C4(OC)C6C(CN54)N6C)C3=O)N1CC1C2N1C (stereo not drawn) [t, 7-N, 7'-N'-dithiodiethylenediporfiromycin] | 33.8 | 2.15 | 1.34
